Here are results for two compounds from patent US9879014B2, “Method for screening substance capable of inhibiting abnormal splicing causative of onset or progress of disease” (KYOTO UNIVERSITY, priority 2013, dated 2018).

Assay [1] deals with endogenous IKBKAP gene with the IVS20+6T→C mutation in cells of FD patients. Briefly: RT-PCR of spliced products of the endogenous IKBKAP gene in cells of FD patients. Format: cell-based, human. The settings on record: cultured 60 hours. As to the method:
The cells of FD patients were obtained from Coriell Institute. The endogenous IKBKAP gene in the cells of FD patients had the IVS20^+6T→C mutation. Compound 1 and the kinetin were added at a concentration of 2 μM or 50 μM to a culture medium of the cells of FD patients. The cells were cultured for 60 hours, collected, and then subjected to RT-PCR. As the control, untreated cells and DMSO (solvent) treated cells were used. FIG. 4 illustrates the results.

In assay [2] the test system is pre-mRNA of the mutant human IKBKAP gene having the IVS20+6T→C mutation. In words: two-color fluorescent FD-type splicing reporter construct in HeLa cells (GFP/RFP). Format: cell-based. The settings on record: HeLa cells transfected with FD-type reporter construct. From the text: A reporter construct (FD type) as illustrated in FIG. 1B was produced by utilizing exons 19 to 21 of a mutant human IKBKAP gene having the IVS20^+6T→C mutation as illustrated in FIG. 1A. In the reporter construct, a gene for a GST protein, exons 19 to 21 of a mutant human IKBKAP gene, a red fluorescent protein (RFP), and a green fluorescent protein (GFP) were connected in this order downstream of a CAG promoter. When this reporter construct underwent wild-type splicing, the gene for a GST protein and exons 19 to 21 of the mutant human IKBKAP gene were joined to form an mRNA of 3n+1 bases in length, and a stop codon (UAA) of the RFP gene was out-of-frame, so that the GFP gene was translated in the frame to express a green fluorescent protein. On the other hand, when this reporter construct underwent abnormal splicing, the gene for a GST protein and exons 19 to 21 of the mutant human IKBKAP gene were joined to form an mRNA of 3n bases in length, so that the RFP gene and the stop codon (UAA) of the RFP gene were translated in the frame to express a red fluorescent protein. The FD-type reporter construct was used to screen a compound capable of inhibiting abnormal splicing of a pre-mRNA that was transcribed from the construct. Specifically, the FD-type reporter construct was transfected into HeLa cells, and then a test compound was brought into contact with the HeLa cells and cultured. Next, fluorescence observation was performed after a predetermined time, and the fluorescence intensity ratio (GFP/RFP) of GFP (normal splicing products) to RFP (abnormal splicing products) was compared to the control (e.g., a solvent alone or kinetin (reference compound 1)), so that the compound with higher fluorescence intensity was determined. […] The FD-type reporter construct was transfected into HeLa cells, and then the compound 1 was brought into contact with the HeLa cells and cultured (compound concentration: […], and 50.0 μM). Next, fluorescence observation was performed each after 24 hours and 48 hours, and the fluorescence intensity ratio (GFP/RFP) was determined. […]

Assay [3] deals with IKBKAP gene with the IVS20+6T→C mutation. Particulars: disclosed in U.S. Pat. No. 7,737,110; cited from earlier work.

“Also recorded” adds a separate entry of the source.

Regarding `Clc1nc(NCc2ccco2)c2nc[nH]c2n1` [compound 1, 2-chloro-N-(2-furanylmethyl)-7H-purin-6-amine], the “spliced products (mRNAs) of the endogenous IKBKAP gene by RT-PCR” value in assay [1] (2 μM or 50 μM) was “reduces the abnormal splicing products and increases the normal splicing products”. Also, in assay [1] (RT-PCR), the “abnormal splicing inhibition activity compared with kinetin” value was “about the same as that of the kinetin at a concentration of 50 μM; also recorded: superior to that of kinetin” and the “concentration capable of inhibiting abnormal splicing” value was at most 2 µM. The “fluorescence intensity ratio (GFP/RFP) of GFP (normal splicing) to RFP (abnormal splicing)” value in assay [2] (0.4, 2.0, 0.10, and 50.0 μM, after 24 hours and 48 hours) is on record as “increased in a concentration-dependent manner; also recorded: increases the GFP/RFP ratio in a concentration-dependent manner”. The “degree of increase of GFP/RFP ratio compared with kinetin” value in assay [2] (after 24 hours and 48 hours) is listed as “significantly higher than that of the kinetin; also recorded: superior to that of kinetin”. Further, in assay [2] (after a predetermined time), the “screening outcome: GFP/RFP fluorescence intensity ratio compared to the control (solvent alone or kinetin)” value is “selected as a candidate compound for inhibiting abnormal splicing”.
Regarding `c1coc(CNc2ncnc3nc[nH]c23)c1` [kinetin], in assay [3], the “inhibition of abnormal splicing of the IKBKAP gene with the IVS20+6T→C mutation” value is recorded as “can inhibit abnormal splicing”.
